Measurements taken from patent US9809625B2, “Immunomodulators” (BRISTOL-MYERS SQUIBB COMPANY, priority 2015, dated 2017).
Bridge positions count the residues as written; N and C are the ends. Square brackets hold non-standard residues; d marks the D form. Peptide text beside a SMILES is read from it. * marks the point of attachment. ξ: configuration not given here. Piperazinyl(4-Ph) = c1ccc(N2CCN(*)CC2)cc1; Hyp = O=C(O)[C@@H]1C[C@@H](O)CN1; Piperazinyl(4-Me) = CN1CCN(*)CC1; ξW = NC(Cc1c[nH]c2ccccc12)C(=O)O; NMeNle = CCCC[C@H](NC)C(=O)O; NMeA = CN[C@@H](C)C(=O)O; Dap = NC[C@H](N)C(=O)O; X13 = CS(=O)(=O)CCN*; X8 = c1ccc(SCCN*)cc1; N(Me)nPr = CCCN(C)*; X11 = OC1CCC(N*)CC1; X2 = c1cn(CCCN*)cn1; X9 = OCCN(CCO)CCCN*; NHcBu = C1CC(N*)C1; OtBu = CC(C)(C)O*; βAla = NCCC(=O)O; NHcPr = C1CC1N*

Each compound was assayed against T1, PD-1-Ig binding to PD-L1-TVMV-His (PD-L1-His) (Homo sapiens, UniProt Q9NZQ7) (assay: PD-1/PD-L1 Homogenous Time-Resolved Fluorescence (HTRF) binding assay). Details: PD-1-Ig (20 nM)/PD-L1-His (10 nM), range classes.
T1 construct: hPDL1(19-239)-TVMV-His; TVMV protease cleavage site (C); made in house; host or cells: HEK293T
T1 sequence (Q9NZQ7 with tags, fused parts or gaps): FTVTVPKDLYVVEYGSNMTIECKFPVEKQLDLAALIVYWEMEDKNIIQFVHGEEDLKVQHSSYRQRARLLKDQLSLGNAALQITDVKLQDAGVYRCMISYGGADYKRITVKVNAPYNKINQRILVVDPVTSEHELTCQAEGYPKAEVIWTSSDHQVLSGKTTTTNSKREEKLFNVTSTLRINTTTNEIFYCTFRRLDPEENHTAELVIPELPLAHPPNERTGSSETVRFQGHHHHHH
Description: Methods for Testing the Ability of Macrocyclic Peptides to Compete for the Binding of PD-1 to PD-L1 Using Homogenous Time-Resolved Fluorescence (HTRF) Binding Assays
The ability of the macrocyclic peptides of the present disclosure to bind to PD-L1 was investigated using a PD-1/PD-L1 Homogenous Time-Resolved Fluorescence (HTRF) binding assay.
Homogenous Time-Resolved Fluorescence (HTRF) Assays of Binding of Soluble PD-1 to Soluble PD-L1. Soluble PD-1 and soluble PD-L1 refers to proteins with carboxyl-end truncations that remove the transmembrane-spanning regions and are fused to heterologous sequences, specifically the Fc portion of the human immunoglobuling G sequence (Ig) or the hexahistidine epitope tag (His). All binding studies were performed in an HTRF assay buffer consisting of dPBS supplemented with 0.1% (w/v) bovine serum albumin and 0.05% (v/v) Tween-20. For the PD-1-Ig/PD-L1-His binding assay, inhibitors were pre-incubated with PD-L1-His (10 nM final) for 15 m in 4 μl of assay buffer, followed by addition of PD-1-Ig (20 nM final) in 1 μl of assay buffer and further incubation for 15 m. PD-L1 fusion proteins from either human, cynomologous macaques, mouse, or other species were used. HTRF detection was achieved using europium crypate-labeled anti-Ig monoclonal antibody (1 nM final) and allophycocyanin (APC) labeled anti-His monoclonal antibody (20 nM final). Antibodies were diluted in HTRF detection buffer and 5 μl was dispensed on top of binding reaction. The reaction was allowed to equilibrate for 30 minutes and signal (665 nm/620 nm ratio) was obtained using an EnVision fluorometer. Additional binding assays were established between PD-1-Ig/PD-L2-His (20 and 5 nM, respectively), CD80-His/PD-L1-Ig (100 and 10 nM, respectively) and CD80-His/CTLA4-Ig (10 and 5 nM, respectively). Binding/competition studies between biotinylated Compound No. 71 and human PD-L1-His were performed as follows. Macrocyclic peptide inhibitors were pre-incubated with PD-L1-His (10 nM final) for 60 minutes in 4 μl of assay buffer followed by addition of biotinylated Compound No. 71 (0.5 nM final) in 1 μl of assay buffer. Binding was allowed to equilibrate for 30 minutes followed by addition of europium crypated labeled Streptavidin (2.5 pM final) and APC-labeled anti-His (20 nM final) in 5 μl of HTRF buffer. The reaction was allowed to equilibrate for 30 m and signal (665 nm/620 nm ratio) was obtained using an EnVision fluorometer.
Recombinant Proteins. Carboxyl-truncated human PD-1 (amino acids 25-167) with a C-terminal human Ig epitope tag [hPD-1 (25-167)-3S-IG] and human PD-L1 (amino acids 18-239) with a C-terminal His epitope tag [hPD-L1(19-239)-tobacco vein mottling virus protease cleavage site (TVMV)-His] were expressed in HEK293T cells and purified sequentially by recombinant Protein A affinity chromatography and size exclusion chromatography. Human PD-L2-His (Sino Biologicals), CD80-His (Sino Biologicals), CTLA4-Ig (RnD Systems) were all obtained through commercial sources.
CCCC[C@H]1C(=O)N(C)[C@@H](CCCC)C(=O)N[C@@H](CC(C)C)C(=O)N[C@H](C(=O)NCC(=O)N(C)CCC)CSCC(=O)N[C@@H](Cc2ccc(O)cc2)C(=O)N(C)[C@@H](C)C(=O)N[C@@H](CC(N)=O)C(=O)N2CCC[C@H]2C(=O)N[C@@H](CN)C(=O)N[C@@H](CC(C)C)C(=O)N2C[C@H](O)C[C@H]2C(=O)N[C@@H](Cc2c[nH]c3ccccc23)C(=O)NCC(=O)N[C@@H](Cc2c[nH]c3ccccc23)C(=O)N1C [Example 13084] ({CH2CO}-Y[NMeA]NP[Dap]L[Hyp]WGW[NMeNle][NMeNle]LCG-{N(Me)nPr}; thioether N-14) was tested, and the IC50 was 10 to 60 nM.
CCCC[C@H]1C(=O)N(C)[C@@H](CCCC)C(=O)N[C@@H](CC(C)C)C(=O)N[C@H](C(=O)NCC(=O)NC2CCC(O)CC2)CSCC(=O)N[C@@H](Cc2ccc(O)cc2)C(=O)N(C)[C@@H](C)C(=O)N[C@@H](CC(N)=O)C(=O)N2CCC[C@H]2C(=O)N[C@@H](CN)C(=O)N[C@@H](CC(C)C)C(=O)N2C[C@H](O)C[C@H]2C(=O)N[C@@H](Cc2c[nH]c3ccccc23)C(=O)NCC(=O)NC(Cc2c[nH]c3ccccc23)C(=O)N1C (some centres unmarked) [Example 13106] ({CH2CO}-Y[NMeA]NP[Dap]L[Hyp]WG[ξW][NMeNle][NMeNle]LCG-X11; thioether N-14) was tested, and the IC50 was 10 to 60 nM.
CCCC[C@H]1C(=O)N(C)[C@@H](CCCC)C(=O)N[C@@H](CC(C)C)C(=O)N[C@H](C(=O)NCC(=O)NCCSc2ccccc2)CSCC(=O)N[C@@H](Cc2ccc(O)cc2)C(=O)N(C)[C@@H](C)C(=O)N[C@@H](CC(N)=O)C(=O)N2CCC[C@H]2C(=O)N[C@@H](CN)C(=O)N[C@@H](CC(C)C)C(=O)N2C[C@H](O)C[C@H]2C(=O)N[C@@H](Cc2c[nH]c3ccccc23)C(=O)NCC(=O)NC(Cc2c[nH]c3ccccc23)C(=O)N1C (some centres unmarked) [Example 13101] ({CH2CO}-Y[NMeA]NP[Dap]L[Hyp]WG[ξW][NMeNle][NMeNle]LCG-X8; thioether N-14) showed an IC50 of 10 to 60 nM.
Compound CCCC[C@H]1C(=O)N(C)[C@@H](CCCC)C(=O)N[C@@H](CC(C)C)C(=O)N[C@H](C(=O)NCC(=O)NC2CCC2)CSCC(=O)N[C@@H](Cc2ccc(O)cc2)C(=O)N(C)[C@@H](C)C(=O)N[C@@H](CC(N)=O)C(=O)N2CCC[C@H]2C(=O)N[C@@H](CN)C(=O)N[C@@H](CC(C)C)C(=O)N2C[C@H](O)C[C@H]2C(=O)N[C@@H](Cc2c[nH]c3ccccc23)C(=O)NCC(=O)N[C@@H](Cc2c[nH]c3ccccc23)C(=O)N1C [Example 13092] ({CH2CO}-Y[NMeA]NP[Dap]L[Hyp]WGW[NMeNle][NMeNle]LCG-NHcBu; thioether N-14) has an IC50 of 10 to 60 nM.
CCCC[C@H]1C(=O)N(C)[C@@H](CCCC)C(=O)N[C@@H](CC(C)C)C(=O)N[C@H](C(=O)NCC(=O)NC2CC2)CSCC(=O)N[C@@H](Cc2ccc(O)cc2)C(=O)N(C)[C@@H](C)C(=O)N[C@@H](CC(N)=O)C(=O)N2CCC[C@H]2C(=O)N[C@@H](CN)C(=O)N[C@@H](CC(C)C)C(=O)N2C[C@H](O)C[C@H]2C(=O)N[C@@H](Cc2c[nH]c3ccccc23)C(=O)NCC(=O)NC(Cc2c[nH]c3ccccc23)C(=O)N1C (some centres unmarked) [Example 13091] ({CH2CO}-Y[NMeA]NP[Dap]L[Hyp]WG[ξW][NMeNle][NMeNle]LCG-NHcPr; thioether N-14) gave an IC50 of 4 to 9.9 nM.
CCCC[C@H]1C(=O)N(C)[C@@H](CCCC)C(=O)N[C@@H](CC(C)C)C(=O)N[C@H](C(=O)NCC(=O)NCCC(=O)OC(C)(C)C)CSCC(=O)N[C@@H](Cc2ccc(O)cc2)C(=O)N(C)[C@@H](C)C(=O)N[C@@H](CC(N)=O)C(=O)N2CCC[C@H]2C(=O)N[C@@H](CN)C(=O)N[C@@H](CC(C)C)C(=O)N2C[C@H](O)C[C@H]2C(=O)N[C@@H](Cc2c[nH]c3ccccc23)C(=O)NCC(=O)NC(Cc2c[nH]c3ccccc23)C(=O)N1C (some centres unmarked) [Example 13109] ({CH2CO}-Y[NMeA]NP[Dap]L[Hyp]WG[ξW][NMeNle][NMeNle]LCG[βAla]-OtBu; thioether N-14) was tested, and the IC50 was 10 to 60 nM.
CCCC[C@H]1C(=O)N(C)[C@@H](CCCC)C(=O)N[C@@H](CC(C)C)C(=O)N[C@H](C(=O)NCC(=O)NCCS(C)(=O)=O)CSCC(=O)N[C@@H](Cc2ccc(O)cc2)C(=O)N(C)[C@@H](C)C(=O)N[C@@H](CC(N)=O)C(=O)N2CCC[C@H]2C(=O)N[C@@H](CN)C(=O)N[C@@H](CC(C)C)C(=O)N2C[C@H](O)C[C@H]2C(=O)N[C@@H](Cc2c[nH]c3ccccc23)C(=O)NCC(=O)NC(Cc2c[nH]c3ccccc23)C(=O)N1C (some centres unmarked) [Example 13116] ({CH2CO}-Y[NMeA]NP[Dap]L[Hyp]WG[ξW][NMeNle][NMeNle]LCG-X13; thioether N-14) showed an IC50 of 10 to 60 nM.
In the case of CCCC[C@H]1C(=O)N(C)[C@@H](CCCC)C(=O)N[C@@H](CC(C)C)C(=O)N[C@H](C(=O)NCC(=O)NCCCn2ccnc2)CSCC(=O)N[C@@H](Cc2ccc(O)cc2)C(=O)N(C)[C@@H](C)C(=O)N[C@@H](CC(N)=O)C(=O)N2CCC[C@H]2C(=O)N[C@@H](CN)C(=O)N[C@@H](CC(C)C)C(=O)N2C[C@H](O)C[C@H]2C(=O)N[C@@H](Cc2c[nH]c3ccccc23)C(=O)NCC(=O)NC(Cc2c[nH]c3ccccc23)C(=O)N1C (some centres unmarked) [Example 13099] ({CH2CO}-Y[NMeA]NP[Dap]L[Hyp]WG[ξW][NMeNle][NMeNle]LCG-X2; thioether N-14), the IC50 is reported as 10 to 60 nM.
For CCCC[C@H]1C(=O)N(C)[C@@H](CCCC)C(=O)N[C@@H](CC(C)C)C(=O)N[C@H](C(=O)NCC(=O)N2CCN(C)CC2)CSCC(=O)N[C@@H](Cc2ccc(O)cc2)C(=O)N(C)[C@@H](C)C(=O)N[C@@H](CC(N)=O)C(=O)N2CCC[C@H]2C(=O)N[C@@H](CN)C(=O)N[C@@H](CC(C)C)C(=O)N2C[C@H](O)C[C@H]2C(=O)N[C@@H](Cc2c[nH]c3ccccc23)C(=O)NCC(=O)N[C@@H](Cc2c[nH]c3ccccc23)C(=O)N1C [Example 13089] ({CH2CO}-Y[NMeA]NP[Dap]L[Hyp]WGW[NMeNle][NMeNle]LCG-{Piperazinyl(4-Me)}; thioether N-14), the IC50 was 10 to 60 nM.
Compound CCCC[C@H]1C(=O)N(C)[C@@H](CCCC)C(=O)N[C@@H](CC(C)C)C(=O)N[C@H](C(=O)NCC(=O)NCCCN(CCO)CCO)CSCC(=O)N[C@@H](Cc2ccc(O)cc2)C(=O)N(C)[C@@H](C)C(=O)N[C@@H](CC(N)=O)C(=O)N2CCC[C@H]2C(=O)N[C@@H](CN)C(=O)N[C@@H](CC(C)C)C(=O)N2C[C@H](O)C[C@H]2C(=O)N[C@@H](Cc2c[nH]c3ccccc23)C(=O)NCC(=O)N[C@@H](Cc2c[nH]c3ccccc23)C(=O)N1C [Example 13107] ({CH2CO}-Y[NMeA]NP[Dap]L[Hyp]WGW[NMeNle][NMeNle]LCG-X9; thioether N-14) has an IC50 of 10 to 60 nM.
Work on CCCC[C@H]1C(=O)N(C)[C@@H](CCCC)C(=O)N[C@@H](CC(C)C)C(=O)N[C@H](C(=O)NCC(=O)N2CCN(c3ccccc3)CC2)CSCC(=O)N[C@@H](Cc2ccc(O)cc2)C(=O)N(C)[C@@H](C)C(=O)N[C@@H](CC(N)=O)C(=O)N2CCC[C@H]2C(=O)N[C@@H](CN)C(=O)N[C@@H](CC(C)C)C(=O)N2C[C@H](O)C[C@H]2C(=O)N[C@@H](Cc2c[nH]c3ccccc23)C(=O)NCC(=O)NC(Cc2c[nH]c3ccccc23)C(=O)N1C (some centres unmarked) [Example 13117] ({CH2CO}-Y[NMeA]NP[Dap]L[Hyp]WG[ξW][NMeNle][NMeNle]LCG-{Piperazinyl(4-Ph)}; thioether N-14) yielded an IC50 of 4 to 9.9 nM.
